In patent publication US9458137B2, “Substituted indol-5-ol derivatives and their therapeutical applications” (NantBioScience, Inc., priority 2012, dated 2016):

Columns and labels:
CK1(y) = assay: Kinase panel activity; type: biochemical, yeast; settings: 0.1 μM, ATP Km
Procedure: (§1) The effect of NTW-3475 on kinase activity was tested for a wide range of kinases and is shown in Table 2: Summary Sheet, Activity % ATP Concentration: Km

[1] = system: human K562 chronic myelogenous leukemia (CML) xenograft; assay: K562 CML xenograft model; type: in vivo, SCID mice; settings: 5-day on, two-day off for two cycles; female SCID mice
Procedure: The objective of the second study was to evaluate antitumor activities of novel multiple-kinase inhibitor NTW-3475 in human K562 chronic myelogenous leukemia (CML) xenograft model in female SCID mice.
Four to six animals were randomly assigned to study groups. Each animal was weighed, and then injected subcutaneously in the left and right flank area with 0.1 ml of 8.0×10^7 K562 cells per mL.
Each test or control animal was on a 5-day on, two-day off for two cycles treatment schedule. Tumor growth was measured with a digital hand held caliper twice weekly (once tumor emerges) prior to the first dosing and then two to three times weekly until euthanized. Animals were weighed prior to tumor cell injection, prior to dosing, two to three times weekly with tumor growth measurements, and prior to euthanasia.
FIGS. 34 and 35 depict the results of various concentrations of NTW-3456 on a scid mouse/xenograft model of CML using K562 cells.

JNK2α2(h) = JNK2α2(h) (Homo sapiens, UniProt P45984); assay: Kinase panel activity; type: biochemical; settings: 0.1 μM, ATP Km
Procedure: as §1

TLK2(h) = molecular target: T1, TLK2(h) (Homo sapiens, UniProt Q86UE8); assay: Kinase panel activity; type: biochemical; settings: 0.1 μM, ATP Km
T1 construct: purchased Millipore (KinaseProfiler service)
Procedure: as §1

PTK5(h) = molecular target: T2, PTK5(h) (Homo sapiens, UniProt P42685); assay: Kinase panel activity; type: biochemical; settings: 0.1 μM, ATP Km
T2 construct: purchased Millipore (KinaseProfiler service)
Procedure: as §1

B1k(m) = B1k(m) (Mus musculus, UniProt P16277); assay: Kinase panel activity; type: biochemical; settings: 0.1 μM, ATP Km
Procedure: as §1

MKK7β(h) = molecular target: T3, MKK7β(h) (Homo sapiens, UniProt O14733); assay: Kinase panel activity; type: biochemical; settings: 0.1 μM, ATP Km
T3 construct: purchased Millipore (KinaseProfiler service)
Procedure: as §1

CK2α2(h) = CK2α2(h) (Homo sapiens, UniProt P19784); assay: Kinase panel activity; type: biochemical; settings: 0.1 μM, ATP Km
Procedure: as §1

MKK4(m) = molecular target: T4, MKK4(m) (Mus musculus, UniProt P47809); assay: Kinase panel activity; type: biochemical; settings: 0.1 μM, ATP Km
T4 construct: purchased Millipore (KinaseProfiler service)
Procedure: as §1

PrKX(h) = molecular target: T5, PrKX(h) (Homo sapiens, UniProt P51817); assay: Kinase panel activity; type: biochemical; settings: 0.1 μM, ATP Km
T5 construct: purchased Millipore (KinaseProfiler service)
Procedure: as §1

F1t4(h) = F1t4(h) (Homo sapiens, UniProt P35916); assay: Kinase panel activity; type: biochemical; settings: 0.1 μM, ATP Km
Procedure: as §1

p70S6K(h) = p70S6K(h) (Homo sapiens, UniProt P23443); assay: Kinase panel activity; type: biochemical; settings: 0.1 μM, ATP Km
Procedure: as §1

MINK(h) = molecular target: T6, MINK(h) (Homo sapiens, UniProt Q8N4C8); assay: Kinase panel activity; type: biochemical; settings: 0.1 μM, ATP Km
T6 construct: purchased Millipore (KinaseProfiler service)
Procedure: as §1

Hck(h) activated = Hck(h) activated (Homo sapiens, UniProt P08631); assay: Kinase panel activity; type: biochemical; settings: 0.1 μM, ATP Km
Procedure: as §1

MSK2(h) = molecular target: T7, MSK2(h) (Homo sapiens, UniProt O75676); assay: Kinase panel activity; type: biochemical; settings: 0.1 μM, ATP Km
T7 construct: purchased Millipore (KinaseProfiler service)
Procedure: as §1

PAR-1Bα(h) = PAR-1Bα(h) (Homo sapiens, UniProt Q7KZI7); assay: Kinase panel activity; type: biochemical; settings: 0.1 μM, ATP Km
Procedure: as §1

MSSK1(h) = molecular target: T8, MSSK1(h) (Homo sapiens, UniProt Q9UPE1); assay: Kinase panel activity; type: biochemical; settings: 0.1 μM, ATP Km
T8 construct: purchased Millipore (KinaseProfiler service)
Procedure: as §1

TrkB(h) = molecular target: T9, TrkB(h) (Homo sapiens, UniProt Q16620); assay: Kinase panel activity; type: biochemical; settings: 0.1 μM, ATP Km
T9 construct: purchased Millipore (KinaseProfiler service)
Procedure: as §1

Aurora-A(h) = molecular target: T10, Aurora-A(h) (Homo sapiens, UniProt O14965); assay: Kinase panel activity; type: biochemical; settings: 0.1 μM, ATP Km
T10 construct: purchased Millipore (KinaseProfiler service)
Procedure: as §1

Fer(h) = molecular target: T11, Fer(h) (Homo sapiens, UniProt P16591); assay: Kinase panel activity; type: biochemical; settings: 0.1 μM, ATP Km
T11 construct: purchased Millipore (KinaseProfiler service)
Procedure: as §1

MLK1(h) = molecular target: T12, MLK1(h) (Homo sapiens, UniProt P80192); assay: Kinase panel activity; type: biochemical; settings: 0.1 μM, ATP Km
T12 construct: purchased Millipore (KinaseProfiler service)
Procedure: as §1

PKCμ(h) = PKCμ(h) (Homo sapiens, UniProt Q15139); assay: Kinase panel activity; type: biochemical; settings: 0.1 μM, ATP Km
Procedure: as §1

Aurora-C(h) = Aurora-C(h) (Homo sapiens, UniProt Q9UQB9); assay: Kinase panel activity; type: biochemical; settings: 0.1 μM, ATP Km
Procedure: as §1

MSK1(h) = molecular target: T13, MSK1(h) (Homo sapiens, UniProt O75582); assay: Kinase panel activity; type: biochemical; settings: 0.1 μM, ATP Km
T13 construct: purchased Millipore (KinaseProfiler service)
Procedure: as §1

Tie2(R849W)(h) = molecular target: T14, Tie2(R849W)(h) (Homo sapiens, UniProt Q02763, R849W); assay: Kinase panel activity; type: biochemical; settings: 0.1 μM, ATP Km
T14 construct: purchased Millipore (KinaseProfiler service)
Procedure: as §1

EGFR(T790M)(h) = molecular target: T15, EGFR(T790M)(h) (Homo sapiens, UniProt P00533, T790M); assay: Kinase panel activity; type: biochemical; settings: 0.1 μM, ATP Km
T15 construct: purchased Millipore (KinaseProfiler service)
Procedure: as §1

DAPK2(h) = DAPK2(h) (Homo sapiens, UniProt Q9UIK4); assay: Kinase panel activity; type: biochemical; settings: 0.1 μM, ATP Km
Procedure: as §1

PKCη(h) = PKCη(h) (Homo sapiens, UniProt P24723); assay: Kinase panel activity; type: biochemical; settings: 0.1 μM, ATP Km
Procedure: as §1

Yes(h) = Yes(h) (Homo sapiens, UniProt P07947); assay: Kinase panel activity; type: biochemical; settings: 0.1 μM, ATP Km
Procedure: as §1

F1t3(D835Y)(h) = F1t3(D835Y)(h) (Homo sapiens, UniProt P36888, D835Y); assay: Kinase panel activity; type: biochemical; settings: 0.1 μM, ATP Km
Procedure: as §1

Arg(h) = Arg(h) (Homo sapiens, UniProt P42684); assay: Kinase panel activity; type: biochemical; settings: 0.1 μM, ATP Km
Procedure: as §1

Lck(h) activated = Lck(h) activated (Homo sapiens, UniProt P06239); assay: Kinase panel activity; type: biochemical; settings: 0.1 μM, ATP Km
Procedure: as §1

MAPKAP-K3(h) = molecular target: T16, MAPKAP-K3(h) (Homo sapiens, UniProt Q16644); assay: Kinase panel activity; type: biochemical; settings: 0.1 μM, ATP Km
T16 construct: purchased Millipore (KinaseProfiler service)
Procedure: as §1

FGFR1(V561M)(h) = molecular target: T17, FGFR1(V561M)(h) (Homo sapiens, UniProt P11362, V561M); assay: Kinase panel activity; type: biochemical; settings: 0.1 μM, ATP Km
T17 construct: purchased Millipore (KinaseProfiler service)
Procedure: as §1

Sequence of PKCμ(h) (Q15139 whole entry): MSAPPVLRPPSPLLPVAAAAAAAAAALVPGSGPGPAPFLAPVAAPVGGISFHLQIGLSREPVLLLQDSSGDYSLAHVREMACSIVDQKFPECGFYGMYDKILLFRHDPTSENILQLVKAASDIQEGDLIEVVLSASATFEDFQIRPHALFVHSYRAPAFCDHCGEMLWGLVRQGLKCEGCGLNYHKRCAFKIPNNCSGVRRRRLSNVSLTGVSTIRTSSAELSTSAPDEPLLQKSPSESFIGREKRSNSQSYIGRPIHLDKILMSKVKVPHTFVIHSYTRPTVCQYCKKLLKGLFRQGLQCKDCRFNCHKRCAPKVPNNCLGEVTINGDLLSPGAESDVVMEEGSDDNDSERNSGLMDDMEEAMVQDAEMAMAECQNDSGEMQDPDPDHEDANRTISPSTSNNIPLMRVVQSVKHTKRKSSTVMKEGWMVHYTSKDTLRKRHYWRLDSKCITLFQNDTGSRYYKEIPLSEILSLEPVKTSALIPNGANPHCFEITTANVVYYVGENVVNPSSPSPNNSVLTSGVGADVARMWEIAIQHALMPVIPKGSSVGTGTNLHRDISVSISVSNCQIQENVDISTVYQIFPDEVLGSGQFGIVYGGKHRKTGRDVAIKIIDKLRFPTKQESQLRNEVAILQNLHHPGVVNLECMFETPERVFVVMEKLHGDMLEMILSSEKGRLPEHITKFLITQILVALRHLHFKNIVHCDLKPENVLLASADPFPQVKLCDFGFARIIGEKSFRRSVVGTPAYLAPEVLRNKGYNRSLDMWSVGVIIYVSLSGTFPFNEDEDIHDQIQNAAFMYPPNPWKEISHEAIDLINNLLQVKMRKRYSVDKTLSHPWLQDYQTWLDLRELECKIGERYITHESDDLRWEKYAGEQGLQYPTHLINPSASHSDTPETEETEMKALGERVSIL
T6 sequence (Q8N4C8 whole entry): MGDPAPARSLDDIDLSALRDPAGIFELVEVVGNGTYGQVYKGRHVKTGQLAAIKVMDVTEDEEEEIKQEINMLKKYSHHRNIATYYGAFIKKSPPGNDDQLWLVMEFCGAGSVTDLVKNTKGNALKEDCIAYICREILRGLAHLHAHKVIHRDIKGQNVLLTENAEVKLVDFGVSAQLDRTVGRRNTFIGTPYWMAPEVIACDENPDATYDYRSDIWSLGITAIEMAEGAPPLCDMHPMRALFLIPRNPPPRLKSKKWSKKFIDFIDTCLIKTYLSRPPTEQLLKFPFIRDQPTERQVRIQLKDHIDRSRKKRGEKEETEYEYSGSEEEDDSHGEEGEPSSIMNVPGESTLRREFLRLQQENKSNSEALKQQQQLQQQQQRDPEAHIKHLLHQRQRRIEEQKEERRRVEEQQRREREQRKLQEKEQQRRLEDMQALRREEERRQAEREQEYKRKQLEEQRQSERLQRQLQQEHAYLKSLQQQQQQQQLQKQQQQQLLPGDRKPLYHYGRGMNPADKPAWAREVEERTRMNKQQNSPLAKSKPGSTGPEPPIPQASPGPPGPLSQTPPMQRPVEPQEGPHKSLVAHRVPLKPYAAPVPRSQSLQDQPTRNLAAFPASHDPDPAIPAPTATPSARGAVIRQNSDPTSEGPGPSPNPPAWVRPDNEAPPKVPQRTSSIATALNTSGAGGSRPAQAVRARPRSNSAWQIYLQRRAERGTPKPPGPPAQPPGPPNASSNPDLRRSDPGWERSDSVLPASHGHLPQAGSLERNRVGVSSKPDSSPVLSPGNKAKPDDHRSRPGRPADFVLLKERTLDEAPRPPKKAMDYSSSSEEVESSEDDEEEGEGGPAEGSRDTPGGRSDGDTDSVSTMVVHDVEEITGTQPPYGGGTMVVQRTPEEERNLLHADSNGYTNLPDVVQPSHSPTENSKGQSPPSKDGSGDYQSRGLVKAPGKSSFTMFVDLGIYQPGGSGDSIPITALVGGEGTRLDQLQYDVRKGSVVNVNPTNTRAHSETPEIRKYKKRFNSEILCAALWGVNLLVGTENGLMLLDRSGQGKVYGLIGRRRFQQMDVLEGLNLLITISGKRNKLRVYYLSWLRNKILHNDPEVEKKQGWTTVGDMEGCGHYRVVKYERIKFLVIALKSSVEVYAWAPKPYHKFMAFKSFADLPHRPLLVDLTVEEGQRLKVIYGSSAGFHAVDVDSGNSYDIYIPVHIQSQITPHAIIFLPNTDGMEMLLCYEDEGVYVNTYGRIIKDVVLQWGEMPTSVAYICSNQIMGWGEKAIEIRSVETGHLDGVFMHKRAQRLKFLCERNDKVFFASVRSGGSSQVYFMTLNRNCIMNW
Sequence of Lck(h) activated (P06239 whole entry): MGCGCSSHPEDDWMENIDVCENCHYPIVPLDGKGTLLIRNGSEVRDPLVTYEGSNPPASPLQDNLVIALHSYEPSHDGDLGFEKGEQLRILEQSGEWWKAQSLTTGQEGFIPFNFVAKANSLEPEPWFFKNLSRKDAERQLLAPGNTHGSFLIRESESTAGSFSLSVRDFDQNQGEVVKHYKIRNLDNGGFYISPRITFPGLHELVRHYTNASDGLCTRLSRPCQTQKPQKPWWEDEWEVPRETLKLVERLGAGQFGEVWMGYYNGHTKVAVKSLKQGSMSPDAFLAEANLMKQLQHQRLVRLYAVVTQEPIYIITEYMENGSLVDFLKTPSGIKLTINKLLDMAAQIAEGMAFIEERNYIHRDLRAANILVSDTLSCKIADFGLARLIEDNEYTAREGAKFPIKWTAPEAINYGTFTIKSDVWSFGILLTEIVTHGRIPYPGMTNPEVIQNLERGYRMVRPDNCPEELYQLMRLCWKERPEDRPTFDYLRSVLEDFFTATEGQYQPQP
Sequence of B1k(m) (P16277 whole entry): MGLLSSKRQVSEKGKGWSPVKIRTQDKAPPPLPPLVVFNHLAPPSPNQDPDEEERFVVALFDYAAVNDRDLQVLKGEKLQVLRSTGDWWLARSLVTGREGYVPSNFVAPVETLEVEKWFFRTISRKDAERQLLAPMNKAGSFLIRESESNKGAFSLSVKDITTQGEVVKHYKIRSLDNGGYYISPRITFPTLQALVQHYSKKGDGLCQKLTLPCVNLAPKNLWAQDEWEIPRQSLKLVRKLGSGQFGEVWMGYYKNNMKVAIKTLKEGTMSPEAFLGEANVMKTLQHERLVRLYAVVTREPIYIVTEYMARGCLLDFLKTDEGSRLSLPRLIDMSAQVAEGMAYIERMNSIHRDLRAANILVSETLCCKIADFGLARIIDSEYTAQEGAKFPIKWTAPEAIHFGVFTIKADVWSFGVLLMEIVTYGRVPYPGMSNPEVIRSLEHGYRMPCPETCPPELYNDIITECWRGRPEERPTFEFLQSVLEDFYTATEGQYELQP
T7 sequence (O75676 whole entry): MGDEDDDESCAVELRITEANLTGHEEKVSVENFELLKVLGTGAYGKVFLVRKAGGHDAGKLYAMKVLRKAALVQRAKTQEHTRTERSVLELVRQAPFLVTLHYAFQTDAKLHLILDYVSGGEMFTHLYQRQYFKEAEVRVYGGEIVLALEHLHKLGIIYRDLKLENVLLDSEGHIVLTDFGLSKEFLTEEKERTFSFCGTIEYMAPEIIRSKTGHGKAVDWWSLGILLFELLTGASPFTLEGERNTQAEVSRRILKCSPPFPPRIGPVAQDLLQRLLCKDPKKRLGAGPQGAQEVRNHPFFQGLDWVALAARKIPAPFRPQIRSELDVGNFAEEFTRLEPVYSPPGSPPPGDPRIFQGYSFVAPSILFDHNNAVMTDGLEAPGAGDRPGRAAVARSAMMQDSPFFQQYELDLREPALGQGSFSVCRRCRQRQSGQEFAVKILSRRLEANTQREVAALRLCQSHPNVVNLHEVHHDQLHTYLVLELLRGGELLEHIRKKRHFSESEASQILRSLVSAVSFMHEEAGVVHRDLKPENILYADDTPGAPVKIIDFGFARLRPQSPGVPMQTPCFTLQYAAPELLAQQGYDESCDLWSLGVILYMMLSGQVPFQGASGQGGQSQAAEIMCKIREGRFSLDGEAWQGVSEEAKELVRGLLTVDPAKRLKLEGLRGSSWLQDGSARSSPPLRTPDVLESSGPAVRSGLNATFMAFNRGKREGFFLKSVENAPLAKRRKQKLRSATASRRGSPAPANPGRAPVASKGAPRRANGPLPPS
Sequence of Hck(h) activated (P08631 whole entry): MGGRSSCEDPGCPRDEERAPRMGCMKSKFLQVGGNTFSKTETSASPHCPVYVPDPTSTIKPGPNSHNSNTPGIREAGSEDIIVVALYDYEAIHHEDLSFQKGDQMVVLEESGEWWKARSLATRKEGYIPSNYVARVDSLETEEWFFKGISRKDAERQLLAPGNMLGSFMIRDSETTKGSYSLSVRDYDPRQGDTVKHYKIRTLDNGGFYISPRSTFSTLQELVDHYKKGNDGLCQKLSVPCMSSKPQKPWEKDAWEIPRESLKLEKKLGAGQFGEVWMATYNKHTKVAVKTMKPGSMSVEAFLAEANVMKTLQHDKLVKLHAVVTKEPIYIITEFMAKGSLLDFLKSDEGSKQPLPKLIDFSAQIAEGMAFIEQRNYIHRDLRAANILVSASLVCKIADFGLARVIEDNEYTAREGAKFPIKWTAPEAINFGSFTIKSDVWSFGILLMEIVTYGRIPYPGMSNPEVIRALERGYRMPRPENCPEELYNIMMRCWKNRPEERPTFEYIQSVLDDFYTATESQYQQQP
T4 sequence (P47809 whole entry): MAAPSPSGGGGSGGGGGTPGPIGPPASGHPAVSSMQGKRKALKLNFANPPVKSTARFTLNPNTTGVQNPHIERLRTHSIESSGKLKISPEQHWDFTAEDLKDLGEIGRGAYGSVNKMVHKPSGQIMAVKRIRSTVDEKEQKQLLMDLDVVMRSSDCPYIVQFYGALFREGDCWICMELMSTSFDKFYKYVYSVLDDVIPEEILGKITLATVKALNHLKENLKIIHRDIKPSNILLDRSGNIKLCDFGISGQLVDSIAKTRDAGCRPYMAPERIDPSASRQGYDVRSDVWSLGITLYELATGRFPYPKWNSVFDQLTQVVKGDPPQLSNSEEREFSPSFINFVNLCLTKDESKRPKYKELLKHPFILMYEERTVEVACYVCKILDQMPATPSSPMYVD

Activity % (CK1(y)): 100%
Activity % (JNK2α2(h)): 107%
Activity % (TLK2(h)): 5%
Activity % (PTK5(h)): 17%
Activity % (B1k(m)): 14%
Activity % (MKK7β(h)): 97%
Activity % (CK2α2(h)): 115%
Activity % (MKK4(m)): 100%
Activity % (PrKX(h)): 68%
Activity % (F1t4(h)): 0%
Activity % (p70S6K(h)): 84%
Activity % (MINK(h)): 75%
Activity % (Hck(h) activated): 12%
Activity % (MSK2(h)): 90%
Activity % (PAR-1Bα(h)): 15%
Activity % (MSSK1(h)): 110%
Activity % (TrkB(h)): 1%
Activity % (Aurora-A(h)): 7%
Activity % (Fer(h)): 69%
Activity % (MLK1(h)): 7%
Activity % (PKCμ(h)): 95%
Activity % (Aurora-C(h)): 21%
Activity % (MSK1(h)): 104%
Activity % (Tie2(R849W)(h)): 6%
Activity % (EGFR(T790M)(h)): 61%
Activity % (DAPK2(h)): 106%
Activity % (PKCη(h)): 101%
Activity % (Yes(h)): 0%
Activity % (F1t3(D835Y)(h)): 0%
Activity % (Arg(h)): −3%
Activity % (Lck(h) activated): −1%
Activity % (MAPKAP-K3(h)): 103%
Activity % (FGFR1(V561M)(h)): −4%
Compound: Cc1cc2c(F)c(Oc3nc(Nc4cc(C5CC5)[nH]n4)cc(N4CCN(C)CC4)n3)cc(F)c2[nH]1 [NTW-3475]
anti-tumor effect against CML [1]: strong anti-tumor effect
